Marks after values point to notes of the source that are not given here.
Legend:
bean cv. Seaway = assay: Frost tolerance of beans; assay type: in vivo; details: watering, 10 mg/l; −2° C. for 8 hours
Protocol: Seedlings of bean cv. Seaway were cultivated under normal conditions for the first two weeks, then they were treated with 10 mg/liter and 100 mg/liter concentration solutions of the examined active agents 2 and 1 days before the initiation of the frost tolerance experiments. In the experiment, the plants were kept at −2° C. for 8 hours, then grew under normal conditions for I week, and the survival ratio was determined. 4 trays were used for each experiment and 6 seeds were planted in each tray.

Soybean seeds = assay: Pearling of soybean seeds, then CSVT; assay type: in vivo
Protocol: (§1) In this experiment the tolerance of maize, soybean and pepper seeds treated with the active agent against cold was tested. This test imposed temperature and oxygen deficiency stresses on the seeds and was carried out according to Barla-Szabó and Dolinka CSVT (Complex Stressing Vigour Test). For a single test, two hundred seeds were soaked for 48 hours at 25° C. and another 48 hours at 5° C in 150 ml distilled water containing the active agent in 10 mg/l concentration. Following the 96 hours of soaking, the seeds were further germinated between rolled wet paper for 96 hours at 25° C. There were 25 seeds in each roll, the rolls were placed vertically into containers and covered with a plastic bag in order to reduce evaporation. During the whole procedure the seeds were kept in darkness.
(§2) At the end of the experiment the number of normally developing and ungerminated seeds were recorded. The length of the normal seedlings was measured and the average length of the five longest seedlings was calculated. Seedlings longer than 0.33 times the average length of the five longest seedlings were considered to be of high vigour, and low vigour seedlings were shorter than this length.
Soybean seeds are treated with a pearling agent, which contains 1 mg/ml of N-[3-(1-piperidinyl)propoxy]-3-nitro-benzimidoyl-chloride monohydrochloride (Compound 3) in a 5% aqueous polyvinylalcohol solution. 100 seeds and 1 ml of pearling agent are filled into a glass vessel and while the vessel is rotated, the seeds are coated with the agent and then it is left to dry. For seeds treated this way, we obtained the following results when placed under the conditions of the CSVT test described in Example 7.

Mo 17 inbred maize line = assay: CSVT (Complex Stressing Vigour Test), seeds soaked in active agent, Mo 17 maize; assay type: in vivo; details: seeds soaked in 10 mg/l active agent, * = significant vs control P < 0.05
Protocol: as §1, with “darkness. At the end of the experiment the number of normally developing and ungerminated seeds were recorded. The length of the normal seedlings was measured and the average length of the five longest seedlings was calculated. Seedlings longer than 0.33 times the average length of the five longest seedlings were considered to be of high vigour, and low vigour seedlings were shorter than this length.” for “darkness.”

McCall soybeans = assay: CSVT, McCall soybeans; assay type: in vivo, soybean
Protocol: as §1, §2
When applying the CSVT test, the following results were obtained (Table 4.).

[1] = test system: maize of low chilling tolerance (LT) population; assay: CSVT, maize population of low chilling tolerance (LT); assay type: in vivo
Protocol: as §1, §2
(§3) In the case of a further experiment with maize of low chilling tolerance (LT) and high chilling tolerance (HT) populations [Ref: P. Landi, E. Frascaroli, A. Lovato; EUPHYTICA 64 21-29 (1992)], the following positive effects were found (Table 3.).

[2] = test system: maize of high chilling tolerance (HT) population; assay: CSVT, maize population of high chilling tolerance (HT); assay type: in vivo
Protocol: as §1, §2, §3

HMv09 inbred maize line = assay: CSVT, seeds soaked in active agent, HMv09 maize; assay type: in vivo; details: seeds soaked in 10 mg/l active agent
Protocol: as §1, with “darkness. At the end of the experiment the number of normally developing and ungerminated seeds were recorded. The length of the normal seedlings was measured and the average length of the five longest seedlings was calculated. Seedlings longer than 0.33 times the average length of the five longest seedlings were considered to be of high vigour, and low vigour seedlings were shorter than this length.” for “darkness.”

bean plants (cv. Seaway) = assay: Drought tolerance of beans, part b (7 days hardening); assay type: in vivo; details: 7 days without water, 10 mg/liter and 100 mg/liter solution named, table does not say which
Source text: Based on the experiences of our preliminary experiments, the plants were hardened before the application of the active agent by withholding the water for a few days, until the first signs of withering appeared. Then the plants were watered and the active agent was either dissolved in the water, or sprayed to the plants directly. Afterwards, the plants were subjected to different periods of drought according to the given experiment, watered again, and after a week-long regeneration period, the survival ratio was determined.
b) In this experiment, bean plants (cv. Seaway) were hardened for 7 days instead of the 5 days described in Part a. Then a 10 mg/liter and 100 mg/liter concentration solution of the active agent was applied two times a day for two days. Then 7 days without water followed, and after a week-long regeneration period, the results of the experiment were evaluated.

green peppers = assay: CSVT, green peppers; assay type: in vivo, pepper
Protocol: as §1, §2
Under the circumstances of the CSVT test, they increased the length of the sprouts and the roots along with the proportion of the high vigour seedlings. […]

soybean cv. Bólyi 44 = assay: Drought tolerance of soybeans; assay type: in vivo; details: 6 days hardening; 50 mg/liter in the water; 4 days without watering, one week regeneration
Protocol: Soybeans of soybean cv. Bólyi 44 were hardened for 6 days by withholding the water. This was followed by two days of watering, and the active agent was applied in the water. The concentration of the solution of the active agent was 50 mg/liter. After a 4-day-long cease of watering and a one week regeneration period, the number of surviving plants was recorded.
Watering was ceased for 10 days for a certain group of plants in the experiment. It was observed that almost every plant perished. Each of the 4 surviving plants had previously been treated with the active agent.

[3] = 100 seeds pearled with 1 ml of 1 mg/ml in 5% PVA

`Cl.O=[N+]([O-])c1cccc(C(Cl)=NOCCCN2CCCCC2)c1` [Compound 3, N-[3-(1-piperidinyl)propoxy]-3-nitro-benzimidoyl-chloride monohydrochloride] was tested, and the “Survival (%)” value (bean cv. Seaway) was 40* %, the “Ratio of high vigour plants (%), root” value (Soybean seeds; [3]) was 58* % and the “Ratio of high vigour plants (%), sprout” value (Soybean seeds; [3]) was 63* %. The “effect on ratio of high vigour plants and length of sprouts and roots” value (Soybean seeds; PVA solution containing Compound 3 as pearling agent) was “increase the ratio of high vigour plants significantly”, the “Ratio of high vigour plants (%)” value (Mo 17 inbred maize line) was 28* % and the “Ratio of high vigour plants (%)” value (McCall soybeans) was 46* %. For the same compound, the “Ratio of high vigour plants %, LT” value [1] was 88* %, the “Ratio of high vigour plants %, HT” value [2] was 94* % and the “Ratio of high vigour plants (%)” value (HMv09 inbred maize line) was 40* %. For the same compound, the “Survival (%)” value (bean plants (cv. Seaway)) was 39* %, the “Ratio of high vigour plants (%)” value (green peppers) was 45* % and the “Survival (%)” value (soybean cv. Bólyi 44) was 33* %.
